These results are taken from US9861703B2 (Jinan Platinum Pharmatech Co. Ltd., priority 2013, dated 2018).

For data set [1], the system named is human liver cancer cell line H7402. As to the kind of experiment: MTT proliferation inhibition, H7402. In kind it is cell-based. On the procedure: (§1) Human leukemia cell line K562, clear-cell ovarian carcinoma cell line ES-2, human prostate cancer cell line PC-3, human breast cancer cell line MCF-7, cell line Hela, human liver cancer cell line H7402 and human ovarian cancer cell line 3-AO were transferred into a culture flask and were cultured in a medium at 37° C. in a 5% CO2 and saturation humidity. One bottle of cells in logarithmic growth phase was picked out and was blew and beaten to be uniform with a pipette, then took some cell suspension solution to prepare blood counting plate smear to count cells under inverted microscope, and then adjusted the cell number to be 1×10^5/mL by adding some culture medium. Cells were seeded on a 96-well plate on which also drug tests performed. Blank control group, negative control group, positive control group and drug test group were established on the plate while the surrounding wells of the plate were not used (but filled with sterile PBS), wherein the blank control groups were prepared by addition of culture medium 150 μL per well, the negative control groups were prepared by addition of cell suspension solution 100 μL per well and culture medium 50 μL per well, the positive control groups were prepared by addition of cell suspension solution 100 μL per well and positive control drug solution 50 μL per well, the drug test groups were prepared by addition of cell suspension solution 100 μL per well and test compound solution 50 μL per well, and there were 5 different concentrations of drug in the positive control group and the drug test group respectively: 0.01, 0.1, 1, 10, 100 μmol·L^−1, each concentration was established with 3 parallel wells. After the drug was added, the 96-well plate was incubated for 48 h at 37° C. in a CO2 incubator of 5% CO2 and saturation humidity. Upon completion of the incubation, 20 μL MTT solution (concentration was 5 mg/mL) was added to each well and incubated for an additional 4 h, and after the 96-well plate was centrifuged at 2000 rpm for 30 min, medium of each well was suck out carefully and removed and 100 μL DMSO was added instead, followed by vibrating on a tablet shaker for 15 min to re-dissolve formazan crystals completely. OD value of each well was measured at 570 nm wavelength using an enzyme-linked immunosorbent assay reader to calculate cellular proliferation inhibitory ratio of each drug in different concentrations. And half-inhibitory concentration (IC50) was calculated using statistical software SPSS 16.0, wherein the cellular proliferation inhibitory ratio can be calculated as following equation: […]

Data set [2] concerns human leukemia cell line K562. As to the kind of experiment: MTT proliferation inhibition, K562. In kind it is cell-based. The protocol:
as §1

Another data set deals with cell line Hela. As to the kind of experiment: MTT proliferation inhibition, Hela. In kind it is cell-based. Particulars: 48 h. On the procedure: as §1
The target in the next data set is T1, Aminopeptidase N (Sus scrofa, UniProt P15145).
T1 construct: purchased Sigma
T1 sequence (P15145 1-963): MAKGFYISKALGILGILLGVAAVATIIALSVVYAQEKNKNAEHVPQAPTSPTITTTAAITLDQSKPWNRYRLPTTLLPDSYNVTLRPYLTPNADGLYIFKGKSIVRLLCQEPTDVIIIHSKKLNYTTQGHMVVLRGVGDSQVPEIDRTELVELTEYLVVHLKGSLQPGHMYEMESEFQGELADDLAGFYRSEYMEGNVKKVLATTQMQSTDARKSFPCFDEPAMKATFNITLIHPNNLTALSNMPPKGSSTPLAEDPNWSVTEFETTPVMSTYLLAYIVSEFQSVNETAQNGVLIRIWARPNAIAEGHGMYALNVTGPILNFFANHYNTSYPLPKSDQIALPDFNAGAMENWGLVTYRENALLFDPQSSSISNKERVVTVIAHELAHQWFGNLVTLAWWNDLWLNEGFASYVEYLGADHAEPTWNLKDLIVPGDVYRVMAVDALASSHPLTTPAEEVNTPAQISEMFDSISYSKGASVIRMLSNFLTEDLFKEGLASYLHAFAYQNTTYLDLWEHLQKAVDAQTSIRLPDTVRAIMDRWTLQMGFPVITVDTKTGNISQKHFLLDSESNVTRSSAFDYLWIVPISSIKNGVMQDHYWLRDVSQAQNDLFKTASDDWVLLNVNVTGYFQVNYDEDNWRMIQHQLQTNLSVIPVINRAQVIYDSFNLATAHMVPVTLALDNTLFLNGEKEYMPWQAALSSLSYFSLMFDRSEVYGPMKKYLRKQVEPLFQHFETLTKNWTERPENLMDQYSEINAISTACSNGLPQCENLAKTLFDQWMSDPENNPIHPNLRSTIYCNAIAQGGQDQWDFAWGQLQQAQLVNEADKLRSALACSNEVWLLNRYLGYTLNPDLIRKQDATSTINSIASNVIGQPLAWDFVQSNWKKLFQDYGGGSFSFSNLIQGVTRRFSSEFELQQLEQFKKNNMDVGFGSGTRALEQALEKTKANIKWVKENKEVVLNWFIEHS
As to the kind of experiment: Inhibition activity against enzyme in vitro (aminopeptidase N, L-Leu-p-nitroanilide substrate). In kind it is biochemical. Conditions: for IC50: 37° C., 0.5 h, absorbance 405 nm, PBS pH 7.2, read-out: IC50(μM) APN. The protocol:
Aminopeptidase N and L-Leu-p-nitroanilide as substrate were purchased from Sigma cooperation.
Preparation of Buffer Solution: 12.89 g Na2HPO4.12H2O and 2.18 g NaH2PO4.2H2O were dissolved in a 1000 mL volumetric flask, then the mixture was diluted to 1000 mL with fresh distilled water to obtain 50 mM Phosphate Buffer solution (PBS, pH 7.2), which was kept at room temperature to spare.
Aminopeptidase N was dissolved in the buffer solution to obtain 0.1 IU/mL solution.
The substrate was dissolved in DMSO to obtain a […] solution, which was kept in refrigerator to spare.
The aminopeptidase N solution 10 μL, the substrate solution 5 μL and compound with different concentration 40 μL were added into a 96-well cell plate, and then adjusted to 200 μL with phosphate buffer saline solution (pH 7.2). […] And the substrate solution 5 μL of blank group was adjusted to 200 μL with buffer solution. The mixture was incubated at 37° C. for 0.5 h, and absorbance was then determined at 405 nm wavelength Inhibitory ratio can be calculated as follows: […]
According to concentration of compound and corresponding inhibitory ratio, the IC50 value was calculated by using a fitting curve of Origin 7.5 software.

Data set [3] deals with human ovarian cancer cell line 3-AO. As to the kind of experiment: MTT proliferation inhibition, 3-AO. Particulars: 48 h. In kind it is cell-based. On the procedure: as §1
For data set [4], the system named is human prostate cancer cell line PC-3. As to the kind of experiment: MTT proliferation inhibition, PC-3. In kind it is cell-based. Particulars: 48 h. The protocol: as §1
Data set [5] deals with 7 cell lines (ES-2, K562, PC-3, MCF-7, Hela, H7402, 3-AO). As to the kind of experiment: MTT proliferation inhibition, all 7 tumor cell lines (summary in words). In kind it is cell-based. On the procedure: as §1
Data set [6] concerns clear-cell ovarian carcinoma cell line ES-2. As to the kind of experiment: MTT proliferation inhibition, ES-2. Conditions: 48 h. In kind it is cell-based. The protocol: as §1
Data set [7] concerns human breast cancer cell line MCF-7. As to the kind of experiment: MTT proliferation inhibition, MCF-7. In kind it is cell-based. On the procedure:
as §1

The next data set has as its system H22 tumor cells. As to the kind of experiment: Activities of compounds in H22 tumor cells bearing Kunming mice models (Example 34). Conditions: intravenous injection, 58.3 mg/kg/d (0.1 mmol/kg/d).

Where a name gives a salt, the structure may show the parent alone. Where only a bound is given, the exact number is not on record here.

Description for H22 tumor cells: The ascites was extracted from H22 tumour bearing mice with well growth, followed by adding sterile PBS to dilute the ascites to a concentration of 8.5×10^7 cells/mL. 100 uL of the cells solution was suck up by a 1 mL sterile injector to inoculate into right oxter of mice. After 3 days, the mice were weighted and randomized to several groups (almost 8 mice per group, and a bit more in control group). These mice were administrated a predetermined dosage by intravenous or oral gavage with two days off when having administrated for 5 days until two cycles one of which had 7 days. The body weight of mouse was recorded at the beginning and ending of every cycle,
After being administrated for two cycles, the mice were weighted and recorded, then sacrificed by cervical dislocation to get lung, liver and spleen weighted respectively.
Overall difference was calculated by the function of one-way analysis of variance (One-Way ANOVA) in Origin 7.5 software; and t-test was used for pair-comparison between drug administrated group and blank group, and the inhibitory ratio of drug in each group was calculated based on the following equation: inhibitory ratio (100%)=(mean tumor weight of control group−mean tumor weight of drug administrated group)/mean tumor weight of control group×100.

A word on the EC50: it is the concentration giving half of the maximal effect. High values mean weaker potency, low ones greater potency. By IC50 is commonly meant the point on the concentration scale where inhibition reaches its midpoint. On to “(S)-2-((2S,4S)-4-((2S,4S,5R,6S)-4-((tert-butoxycarbonyl)amino)-5-hydroxy-6-methyl-2(2H)-tetrahydropyranyloxy))-2,5,12-trihydroxy-7-methoxy-6,11-dioxo-2-(1,2,3,4,6,11-hexahydrotetracenyl)-2-ethoxy-2-((2S,3R)-3-amino-2-hydroxy-4-phenylbutyryl)-4-methylpentanoate hydrochloride [Compound 28]”, for which the EC50 in data set [1] (48 h) amounted to 4.02 µM; in data set [2] (48 h), 4.35 µM; with cell line Hela, 1.99 µM; in data set [3], 3.02 µM; in data set [4] it was 7.67 µM; in data set [6], 3.34 µM. This compound yielded an EC50 in [7] (48 h) of 2.55 µM. Moreover, the “inhibitory activity against aminopeptidase N compared with positive control ubenimex” value against Aminopeptidase N is “comparable activity with ubenimex”. For the same compound, the IC50 on Aminopeptidase N turned out to be 5.56 µM. For the same compound, the “anti-proliferation effect against all the tumor cells” value in data set [5] is “obvious anti-proliferation effect”. The “proliferation inhibition activity compared with 5-FU” value in data set [5] is listed as “much more potent than 5-FU”.

Regarding “(S)-2-(4-(6-(5-(2-chloro-6-methylphenyl)-2-thiazolylcarbonyl amino)-2-methyl-4-pyrimidinyl)-1-piperazinyl)ethyl-2-((2S,3R)-3-amino-2-hydroxy-4-phenylbutyryl)-4-methylpentanoate hydrochloride [Compound 32]”, the EC50 was found to be 6.75 µM in data set [1] (48 h); 6.33 µM in [2] (48 h); 3.23 µM in the data set on cell line Hela; 4.89 µM in [3]; 14.1 µM in data set [4]; 6.45 µM in data set [6]. Further, the EC50 in data set [7] (48 h) is 3.65 µM. Besides, the “inhibitory activity against aminopeptidase N compared with positive control ubenimex” value on Aminopeptidase N was “comparable activity with ubenimex”. The IC50 at Aminopeptidase N stood at 7.88 µM. The “anti-proliferation effect against all the tumor cells” value in data set [5] is on record as “obvious anti-proliferation effect”. The “proliferation inhibition activity compared with 5-FU” value in data set [5] is recorded as “much more potent than 5-FU”.

In the case of `CC(C)C[C@H](NC(=O)[C@@H](O)[C@H](N)Cc1ccccc1)C(=O)N[C@@H](C)C(=O)OCn1cc(F)c(=O)[nH]c1=O.Cl` [BC-03, (S)-(5-fluoro-2,4-dioxo-3,4-dihydropyrimidinyl-1(2H))methyl-2-((S)-2-((2S,3R)-3-amino-2-hydroxy-4-phenylbutanamido)-4-methylpentanamido)propanoate hydrochloride], on Aminopeptidase N, the “inhibitory activity against aminopeptidase N compared with positive control ubenimex” value is “much more potent than the positive control drug ubenimex” and the IC50 is 0.36 µM.

`CC(C)C[C@H](NC(=O)[C@@H](O)[C@H](N)Cc1ccccc1)C(=O)N1CCC[C@H]1C(=O)OCn1cc(F)c(=O)[nH]c1=O` [BC-07, (S)-(5-fluoro-2,4-dioxo-3,4-dihydropyrimidinyl-1(2H))methyl-1-((S)-2-((2S,3R)-3-amino-2-hydroxy-4-phenylbutanamido)-4-methylpentanamido)-2-tetrahydropyrrolidine carboxylate hydrochloride]: at Aminopeptidase N, the “inhibitory activity against aminopeptidase N compared with positive control ubenimex” value is on record as “much more potent than the positive control drug ubenimex” and the IC50 amounted to 0.15 µM. For the same compound, the “Number of mice alive” value in the data set with H22 tumor cells (8 mice, two cycles) came out at 6. In the data set on H22 tumor cells (after two cycles), the “Tumor growth inhibition (%)” value was found to be 43.61% and the “Tumor weight” value is recorded as 0.34 ± 0.24 g. Also, in the data set on H22 tumor cells (beginning), the “Body weight(g) Beginning” value worked out at 32.17 ± 3.86 g. The “Body weight(g) Ending” value in the data set with H22 tumor cells (ending) is 31.44 ± 5.01 g.

For the compound `CC(C)C[C@H](NC(=O)[C@@H](O)[C@H](N)Cc1ccccc1)C(=O)NCCCC(=O)OCn1cc(F)c(=O)[nH]c1=O` [BC-05, (5-fluoro-2,4-dioxo-3,4-dihydropyrimidinyl-1(2H))methyl-6-((S)-2-((2S,3R)-3-amino-2-hydroxy-4-phenylbutanamido)-4-methylpentanamido)butanoate hydrochloride], at Aminopeptidase N, the “inhibitory activity against aminopeptidase N compared with positive control ubenimex” value is on record as “much more potent than the positive control drug ubenimex” and the IC50 came to 1.39 µM.

As to `CC(C)C[C@H](NC(=O)[C@@H](O)[C@H](N)Cc1ccccc1)C(=O)O` [ubenimex, Ubenimex, reference compound], the half-maximal effective concentration (EC50) is 189 µM in data set [1] (Homo sapiens, H7402, 48 h); more than 400 µM in data set [2] (Homo sapiens, K562, 48 h); 79.6 µM with cell line Hela (Homo sapiens); more than 400 µM in [3] (Homo sapiens); more than 400 µM in [4] (Homo sapiens); more than 400 µM in data set [6] (Ovarian carcinoma cell). The compound further displayed an EC50 in data set [7] (Homo sapiens, MCF7, 48 h) of 32.7 µM.

Take `CC(C)C[C@H](NC(=O)[C@@H](O)[C@H](N)Cc1ccccc1)C(=O)NCCCCCC(=O)OCn1cc(F)c(=O)[nH]c1=O` [BC-06, hydrochloride]: on Aminopeptidase N, the “inhibitory activity against aminopeptidase N compared with positive control ubenimex” value is given as “much more potent than the positive control drug ubenimex” and the IC50 stood at 4.66 µM.

Turning to `CC(C)C[C@H](NC(=O)[C@@H](O)[C@H](N)Cc1ccccc1)C(=O)NCCC(=O)OCn1cc(F)c(=O)[nH]c1=O` [BC-04, (5-fluoro-2,4-dioxo-3,4-dihydropyrimidinyl-1(2H))methyl-4-((S)-2-((2S,3R)-3-amino-2-hydroxy-4-phenylbutanamido)-4-methylpentanamido)propanoate hydrochloride], at Aminopeptidase N, the “inhibitory activity against aminopeptidase N compared with positive control ubenimex” value is “much more potent than the positive control drug ubenimex” and the IC50 amounted to 1.3 µM.
